From US12220525B2, “Tiotropium formulation and inhaler” (KINDEVA DRUG DELIVERY L.P., priority 2018, dated 2025)

Assay: Delivered dose study (unit spray collection apparatus, USCA)
Assay type: physicochemical
Method: Metered dose inhalers (MDIs) were prepared using deep drawn aluminum canisters (3M Corporation, Cltheroe, UK), 50 microliter Bespak PBT (polybutylene terephthalate) valves (BK0514719, Bespak Europe Ltd, Bergen Way, King's Lynn, Norfolk, PE30 2JJ) fitted with EPDM (ethylene-propylene diene terpolymer elastomer) diaphragm seals, and an Mk6 P&B actuator. The internal surface of each canister was coated with FEP (fluorinated ethylene propylene copolymer). The bulk formulation for cold filling individual canisters can be prepared by first admixing citric acid and the ethanol, and then adding the tiotropium bromide to the citric acid and ethanol mixture. HFA-134a propellant was then added to a separate batching vessel, and the mixture of tiotropium bromide, citric acid, and ethanol was then added be to the HFA-134a. The formulation was mixed at −50° C. The metered dose inhalers made according to Table 1 were designed to deliver 5 micrograms of Tiotropium (free base) per actuation.
The start of unit life delivered dose was determined using standard unit spray collection apparatus (USCA) fitted with a filter. For each determination, an MDI was attached to the USCA using a coupler and actuated a single time. Immediately prior to attachment, the MDI was shaken. Prior to collection of the test sample, the MDI was primed by actuating four times. Prior to each priming shot the MDI was shaken.

C[N+]1(C)[C@@H]2C[C@@H](OC(=O)C(O)(c3cccs3)c3cccs3)C[C@H]1[C@@H]1O[C@@H]12 [tiotropium bromide]
Start of life dose content uniformity (MDI with Table 1 formulation (0.1204 mg/ml tiotropium bromide, 0.04 wt. % citric acid, 15 wt. % ethanol, HFA-134a; FEP can), primed by actuating four times, single actuation, FIG. 5): 4.3 mcg/actuation | uniformity of dose delivered on storage (MDI with Table 1 formulation, on storage, FIG. 7): remained constant on storage
